Results taken from US20210353593A1 (Chinook Therapeutics, Inc., priority 2019, published 2021).

Tested on: hallmark gene sets in kidney tissue of g-ddY mice
Test: Gene Set Enrichment Analysis (GSEA) of hallmark gene sets, g-ddY mouse kidney RNA-seq
Type: in vivo

With `CCCCN(CCCC)C(=O)CN1C[C@H](c2ccc3c(c2)OCO3)[C@@H](C(=O)O)[C@@H]1c1ccc(OC)cc1` [Atrasentan, (2R,3R,4S)-4-(1,3-benzodioxol-5-yl)-1-[2-(dibutylamino)-2-oxoethyl]-2-(4-methoxyphenyl)pyrrolidine-3-carboxylic acid] the “HALLMARK_ADIPOGENESIS NES” value (10 mg/kg/day vs. control) was 2.15, the “HALLMARK_ALLOGRAFT_REJECTION NES” value (10 mg/kg/day vs. control) was −2.25 and the “HALLMARK_ANDROGEN_RESPONSE NES” value (10 mg/kg/day vs. control) was 0.88. The “HALLMARK_ANGIOGENESIS NES” value (10 mg/kg/day vs. control) was −1.94, the “HALLMARK_APICAL_JUNCTION NES” value (10 mg/kg/day vs. control) was −1.79 and the “HALLMARK_APICAL_SURFACE NES” value (10 mg/kg/day vs. control) was −1.52. The “HALLMARK_APOPTOSIS NES” value (10 mg/kg/day vs. control) was −1.59, the “HALLMARK_BILE_ACID_METABOLISM NES” value (10 mg/kg/day vs. control) was 2.08 and the “HALLMARK_CHOLESTEROL_HOMEOSTASIS NES” value (10 mg/kg/day vs. control) was 1.03. For the same compound, the “HALLMARK_COAGULATION NES” value (10 mg/kg/day vs. control) was −1.53, the “HALLMARK_COMPLEMENT NES” value (10 mg/kg/day vs. control) was −1.51 and the “HALLMARK_DNA_REPAIR NES” value (10 mg/kg/day vs. control) was 0.79. For the same compound, the “HALLMARK_E2F_TARGETS NES” value (10 mg/kg/day vs. control) was −2.07, the “HALLMARK_EPITHELIAL_MESENCHYMAL_TRANSITION NES” value (10 mg/kg/day vs. control) was −2.47 and the “HALLMARK_ESTROGEN_RESPONSE_EARLY NES” value (10 mg/kg/day vs. control) was −1.27. For the same compound, the “HALLMARK_ESTROGEN_RESPONSE_LATE NES” value (10 mg/kg/day vs. control) was −1.18, the “HALLMARK_FATTY_ACID_METABOLISM NES” value (10 mg/kg/day vs. control) was 2.25 and the “HALLMARK_G2M_CHECKPOINT NES” value (10 mg/kg/day vs. control) was −2.15. For the same compound, the “HALLMARK_GLYCOLYSIS NES” value (10 mg/kg/day vs. control) was 1.62, the “HALLMARK_HEDGEHOG_SIGNALING NES” value (10 mg/kg/day vs. control) was −1.51 and the “HALLMARK_HEME_METABOLISM NES” value (10 mg/kg/day vs. control) was 1.57. The “HALLMARK_HYPOXIA NES” value (10 mg/kg/day vs. control) was −1.38, the “HALLMARK_IL2_STAT5_SIGNALING NES” value (10 mg/kg/day vs. control) was −1.77 and the “HALLMARK_IL6_JAK_STAT3_SIGNALING NES” value (10 mg/kg/day vs. control) was −2.34. For the same compound, the “HALLMARK_INFLAMMATORY_RESPONSE NES” value (10 mg/kg/day vs. control) was −2.34, the “HALLMARK_INTERFERON_ALPHA_RESPONSE NES” value (10 mg/kg/day vs. control) was −1.96 and the “HALLMARK_INTERFERON_GAMMA_RESPONSE NES” value (10 mg/kg/day vs. control) was −2.26. The “HALLMARK_KRAS_SIGNALING_DN NES” value (10 mg/kg/day vs. control) was 1.28, the “HALLMARK_KRAS_SIGNALING_UP NES” value (10 mg/kg/day vs. control) was −2.24 and the “HALLMARK_M ITOTIC_SPINDLE NES” value (10 mg/kg/day vs. control) was −1.55. The “HALLMARK_MTORC1_SIGNALING NES” value (10 mg/kg/day vs. control) was 1.11, the “HALLMARK_MYC_TARGETS_V1 NES” value (10 mg/kg/day vs. control) was −1.17 and the “HALLMARK_MYC_TARGETS_V2 NES” value (10 mg/kg/day vs. control) was −0.780. For the same compound, the “HALLMARK_MYOGENESIS NES” value (10 mg/kg/day vs. control) was −1.19, the “HALLMARK_NOTCH_SIGNALING NES” value (10 mg/kg/day vs. control) was 0.83 and the “HALLMARK_OXIDATIVE_PHOSPHORYLATION NES” value (10 mg/kg/day vs. control) was 3.06. The “HALLMARK_P53_PATHWAY NES” value (10 mg/kg/day vs. control) was −1.12, the “HALLMARK_PANCREAS_BETA_CELLS NES” value (10 mg/kg/day vs. control) was 0.85 and the “HALLMARK_PEROXISOME NES” value (10 mg/kg/day vs. control) was 1.68. For the same compound, the “HALLMARK_PI3K_AKT_MTOR SIGNALING NES” value (10 mg/kg/day vs. control) was −0.92, the “HALLMARK_PROTEIN_SECRETION NES” value (10 mg/kg/day vs. control) was 1.06 and the “HALLMARK_REACTIVE_OXYGEN_SPECIES_PATHWAY NES” value (10 mg/kg/day vs. control) was 1.59. The “HALLMARK_SPERMATOGENESIS NES” value (10 mg/kg/day vs. control) was 0.89, the “HALLMARK_TGF_BETA_SIGNALING NES” value (10 mg/kg/day vs. control) was −1.72 and the “HALLMARK_TNFA_SIGNALING_VIA_NFKB NES” value (10 mg/kg/day vs. control) was −2.55. For the same compound, the “HALLMARK_UNFOLDED_PROTEIN_RESPONSE NES” value (10 mg/kg/day vs. control) was −0.91, the “HALLMARK_UV_RESPONSE_DN NES” value (10 mg/kg/day vs. control) was −2.19 and the “HALLMARK_UV_RESPONSE_UP NES” value (10 mg/kg/day vs. control) was 1.28. For the same compound, the “HALLMARK_WNT_BETA_CATENIN_SIGNALING NES” value (10 mg/kg/day vs. control) was −1.02, the “HALLMARK_XENOBIOTIC_METABOLISM NES” value (10 mg/kg/day vs. control) was 1.95 and the “HALLMARK_ADIPOGENESIS NES” value (20 mg/kg/day vs. control) was 2.26. For the same compound, the “HALLMARK_ALLOGRAFT_REJECTION NES” value (20 mg/kg/day vs. control) was −2.90, the “HALLMARK_ANDROGEN_RESPONSE NES” value (20 mg/kg/day vs. control) was 1.03 and the “HALLMARK_ANGIOGENESIS NES” value (20 mg/kg/day vs. control) was −2.19. For the same compound, the “HALLMARK_APICAL_JUNCTION NES” value (20 mg/kg/day vs. control) was −2.24, the “HALLMARK_APICAL_SURFACE NES” value (20 mg/kg/day vs. control) was −1.67 and the “HALLMARK_APOPTOSIS NES” value (20 mg/kg/day vs. control) was −2.17. The “HALLMARK_BILE_ACID_METABOLISM NES” value (20 mg/kg/day vs. control) was 2.39, the “HALLMARK_CHOLESTEROL_HOMEOSTASIS NES” value (20 mg/kg/day vs. control) was −1.03 and the “HALLMARK_COAGULATION NES” value (20 mg/kg/day vs. control) was −2.11. For the same compound, the “HALLMARK_COMPLEMENT NES” value (20 mg/kg/day vs. control) was −2.01, the “HALLMARK_DNA_REPAIR NES” value (20 mg/kg/day vs. control) was 0.83 and the “HALLMARK_E2F_TARGETS NES” value (20 mg/kg/day vs. control) was −2.34. For the same compound, the “HALLMARK_EPITHELIAL_MESENCHYMAL_TRANSITION NES” value (20 mg/kg/day vs. control) was −2.92, the “HALLMARK_ESTROGEN_RESPONSE_EARLY NES” value (20 mg/kg/day vs. control) was −1.52 and the “HALLMARK_ESTROGEN_RESPONSE_LATE NES” value (20 mg/kg/day vs. control) was −1.37. For the same compound, the “HALLMARK_FATTY_ACID_METABOLISM NES” value (20 mg/kg/day vs. control) was 2.51, the “HALLMARK_G2M_CHECKPOINT NES” value (20 mg/kg/day vs. control) was −2.26 and the “HALLMARK_GLYCOLYSIS NES” value (20 mg/kg/day vs. control) was 1.53. The “HALLMARK_HEDGEHOG_SIGNALING NES” value (20 mg/kg/day vs. control) was −1.72, the “HALLMARK_HEME_METABOLISM NES” value (20 mg/kg/day vs. control) was 1.92 and the “HALLMARK_HYPOXIA NES” value (20 mg/kg/day vs. control) was −1.62. For the same compound, the “HALLMARK_IL2_STAT5_SIGNALING NES” value (20 mg/kg/day vs. control) was −2.20, the “HALLMARK_IL6_JAK_STAT3_SIGNALING NES” value (20 mg/kg/day vs. control) was −2.92 and the “HALLMARK_INFLAMMATORY_RESPONSE NES” value (20 mg/kg/day vs. control) was −2.96. For the same compound, the “HALLMARK_INTERFERON_ALPHA_RESPONSE NES” value (20 mg/kg/day vs. control) was −2.44 and the “HALLMARK_INTERFERON_GAMMA_RESPONSE NES” value (20 mg/kg/day vs. control) was −2.88.
